Holding throughout (assay type): cell-based
For assay [1], the system named is Streptococcus pyogenes 1079. Briefly: MIC, microtiter broth dilution (NCCLS M100-S14), S. pyogenes 1079 (ermB). The note with it: Streptococcus pyogenes 1079. The method, boiled down:
(§1)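 Susceptibility testing used microtiter trays with broth dilution. Values are minimum inhibitory concentrations interpreted under NCCLS guidance (M100-S14).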
In general terms: Dilution methods test growth across graded concentrations, often in twofold steps.

The test system of assay [2] is Haemophilus influenzae 1218. Briefly: MIC, microtiter broth dilution (NCCLS M100-S14), H. influenzae 1218 (susceptible). The following applies: Haemophilus influenzae 1218. The method, boiled down: as §1
In assay [3] the test system is Streptococcus pneumoniae 1175. The following applies: Streptococcus pneumoniae 1175; microtiter broth dilution. The gist of the method:
as §1

Assay [4] has as its system Streptococcus pneumoniae 1095. The note with it: Streptococcus pneumoniae 1095; microtiter broth dilution. The method, boiled down:
as §1

Assay [5] concerns Streptococcus pneumoniae 1016. Kind of assay: MIC, microtiter broth dilution (NCCLS M100-S14), S. pneumoniae 1016 (susceptible). The following applies: Streptococcus pneumoniae 1016. The method, boiled down:
as §1

The structures appear in SMILES notation. In brackets after ≈: the same amount, converted by molar mass. Where only a bound is given, the exact number is not on record here.

The values that follow come from US7462600B2, “Macrolides” (Pfizer Inc, priority 2004, dated 2008).

Consider `CCC1OC(=O)C(C)C(=O)C(C)C(OC2OC(C)CC(N(C)C)C2O)C(C)(OC)CC(C)C(=O)C(C)C2N(CC3CN(Cc4cnc5ncccn45)C3)C(=O)OC12C` (centres unmarked) [4.26], for which the “MIC S. pyogenes 1079” value in assay [1] was greater than 64.00 µg/mL. For the same compound, the “MIC H. influenzae 1218” value in assay [2] turned out to be 0.25 µg/mL (≈ 0.308 µM). Also, the “MIC S. pneumo. 1175” value in assay [3] was 2 µg/mL (≈ 2.46 µM). Also, the “MIC S. pneumo. 1095” value in assay [4] worked out at 2 µg/mL (≈ 2.46 µM). Also, the “MIC S. pneumo. 1016” value in assay [5] was less than 0.06 µg/mL.

For the compound `CCC1OC(=O)C(C)C(=O)C(C)C(OC2OC(C)CC(N(C)C)C2O)C(C)(OC)CC(C)C(=O)C(C)C2N(CC3CN(Cc4cn5cccnc5n4)C3)C(=O)OC12C` (centres unmarked) [4.27], the “MIC S. pyogenes 1079” value in assay [1] is greater than 64.00 µg/mL. In addition, the “MIC H. influenzae 1218” value in assay [2] turned out to be 1 µg/mL (≈ 1.23 µM). In addition, the “MIC S. pneumo. 1175” value in assay [3] came to 4 µg/mL (≈ 4.92 µM). Besides, the “MIC S. pneumo. 1095” value in assay [4] is greater than 64.00 µg/mL. Also, the “MIC S. pneumo. 1016” value in assay [5] was less than 0.06 µg/mL.

For the compound `CCC1OC(=O)C(C)C(=O)C(C)C(OC2OC(C)CC(N(C)C)C2O)C(C)(OC)CC(C)C(=O)C(C)C2N(CC3CN(Cc4cnc5cnccn45)C3)C(=O)OC12C` (centres unmarked) [4.28], the “MIC S. pyogenes 1079” value in assay [1] was greater than 64.00 µg/mL. Moreover, in assay [2], the “MIC H. influenzae 1218” value worked out at 0.25 µg/mL (≈ 0.308 µM). Further, the “MIC S. pneumo. 1175” value in assay [3] was found to be 1 µg/mL (≈ 1.23 µM). In addition, the “MIC S. pneumo. 1095” value in assay [4] stood at 8 µg/mL (≈ 9.84 µM). The “MIC S. pneumo. 1016” value in assay [5] is less than 0.06 µg/mL.

With `CCC1OC(=O)C(C)C(=O)C(C)C(OC2OC(C)CC(N(C)C)C2O)C(C)(OC)CC(C)C(=O)C(C)C2N(CC3CN(Cc4ccc5ccccc5c4)C3)C(=O)OC12C` (centres unmarked) [4.29], in assay [1], the “MIC S. pyogenes 1079” value was found to be 16 µg/mL (≈ 19.5 µM). Also, the “MIC H. influenzae 1218” value in assay [2] worked out at 0.12 µg/mL (≈ 0.146 µM). In assay [3], the “MIC S. pneumo. 1175” value was less than 0.06 µg/mL. In addition, the “MIC S. pneumo. 1095” value in assay [4] is 2 µg/mL (≈ 2.43 µM). Moreover, in assay [5], the “MIC S. pneumo. 1016” value is less than 0.06 µg/mL.

Regarding `CCC1OC(=O)C(C)C(=O)C(C)C(OC2OC(C)CC(N(C)C)C2O)C(C)(OC)CC(C)C(=O)C(C)C2N(CC3CN(Cc4ccn(-c5cccnc5)n4)C3)C(=O)OC12C.O=CO` (centres unmarked) [4.30], the “MIC S. pyogenes 1079” value in assay [1] was greater than 64.00 µg/mL. Besides, in assay [2], the “MIC H. influenzae 1218” value worked out at 0.5 µg/mL. Besides, in assay [3], the “MIC S. pneumo. 1175” value is 0.25 µg/mL. Further, the “MIC S. pneumo. 1095” value in assay [4] was greater than 64.00 µg/mL. Also, the “MIC S. pneumo. 1016” value in assay [5] was less than 0.06 µg/mL.

Take `CCC1OC(=O)C(C)C(=O)C(C)C(OC2OC(C)CC(N(C)C)C2O)C(C)(OC)CC(C)C(=O)C(C)C2N(CC3CN(Cc4ccn(-c5ccccn5)n4)C3)C(=O)OC12C.O=CO` (centres unmarked) [4.31]: the “MIC S. pyogenes 1079” value in assay [1] was greater than 64.00 µg/mL. The “MIC H. influenzae 1218” value in assay [2] is 0.5 µg/mL. Moreover, in assay [3], the “MIC S. pneumo. 1175” value was less than 0.06 µg/mL. The “MIC S. pneumo. 1095” value in assay [4] came to 32 µg/mL. The “MIC S. pneumo. 1016” value in assay [5] is less than 0.06 µg/mL.

For `CCC1OC(=O)C(C)C(=O)C(C)C(OC2OC(C)CC(N(C)C)C2O)C(C)(OC)CC(C)C(=O)C(C)C2N(CC3CN(C(=O)c4cccc5ncccc45)C3)C(=O)OC12C` (centres unmarked) [4.32], in assay [1], the “MIC S. pyogenes 1079” value worked out at 64 µg/mL (≈ 76.5 µM). The “MIC H. influenzae 1218” value in assay [2] was 1 µg/mL (≈ 1.19 µM). For the same compound, the “MIC S. pneumo. 1175” value in assay [3] was less than 0.06 µg/mL. In assay [4], the “MIC S. pneumo. 1095” value turned out to be 0.5 µg/mL (≈ 0.597 µM). In addition, the “MIC S. pneumo. 1016” value in assay [5] is less than 0.06 µg/mL.

In the case of `CCC1OC(=O)C(C)C(=O)C(C)C(OC2OC(C)CC(N(C)C)C2O)C(C)(OC)CC(C)C(=O)C(C)C2N(CC3CN(C(=O)c4ccc5ncccc5c4)C3)C(=O)OC12C` (centres unmarked) [4.33], the “MIC S. pyogenes 1079” value in assay [1] turned out to be 64 µg/mL (≈ 76.5 µM). The “MIC H. influenzae 1218” value in assay [2] turned out to be 1 µg/mL (≈ 1.19 µM). In addition, in assay [3], the “MIC S. pneumo. 1175” value worked out at 0.25 µg/mL (≈ 0.299 µM). For the same compound, the “MIC S. pneumo. 1095” value in assay [4] was determined as 1 µg/mL (≈ 1.19 µM). Also, the “MIC S. pneumo. 1016” value in assay [5] was less than 0.06 µg/mL.

Consider `CCC1OC(=O)C(C)C(=O)C(C)C(OC2OC(C)CC(N(C)C)C2O)C(C)(OC)CC(C)C(=O)C(C)C2N(CC3CN(C(=O)c4cnn5ccccc45)C3)C(=O)OC12C` (centres unmarked) [4.35], for which the “MIC S. pyogenes 1079” value in assay [1] is greater than 64.00 µg/mL. Besides, in assay [2], the “MIC H. influenzae 1218” value is 1 µg/mL (≈ 1.21 µM). For the same compound, the “MIC S. pneumo. 1175” value in assay [3] came out at 0.12 µg/mL (≈ 0.145 µM). Further, the “MIC S. pneumo. 1095” value in assay [4] turned out to be 1 µg/mL (≈ 1.21 µM). Further, in assay [5], the “MIC S. pneumo. 1016” value was less than 0.06 µg/mL.

Regarding `CCC1OC(=O)C(C)C(=O)C(C)C(OC2OC(C)CC(N(C)C)C2O)C(C)(OC)CC(C)C(=O)C(C)C2N(CC3CN(Cc4cccc5cccnc45)C3)C(=O)OC12C.O=CO` (centres unmarked) [4.36], in assay [1], the “MIC S. pyogenes 1079” value is greater than 64.00 µg/mL. The “MIC H. influenzae 1218” value in assay [2] was less than 0.06 µg/mL. Further, in assay [3], the “MIC S. pneumo. 1175” value was less than 0.06 µg/mL. Besides, the “MIC S. pneumo. 1095” value in assay [4] was 0.25 µg/mL. Moreover, the “MIC S. pneumo. 1016” value in assay [5] was less than 0.06 µg/mL.

For the compound `CCC1OC(=O)C(C)C(=O)C(C)C(OC2OC(C)CC(N(C)C)C2O)C(C)(OC)CC(C)C(=O)C(C)C2N(CC3CN(C(=O)c4ccnc5ccccc45)C3)C(=O)OC12C.O=CO` (centres unmarked) [4.37], the “MIC S. pyogenes 1079” value in assay [1] was greater than 64.00 µg/mL. Moreover, the “MIC H. influenzae 1218” value in assay [2] came to 0.5 µg/mL. Also, the “MIC S. pneumo. 1175” value in assay [3] is less than 0.06 µg/mL. Also, in assay [4], the “MIC S. pneumo. 1095” value stood at 0.25 µg/mL. The “MIC S. pneumo. 1016” value in assay [5] is less than 0.06 µg/mL.

For `CCC1OC(=O)C(C)C(=O)C(C)C(OC2OC(C)CC(N(C)C)C2O)C(C)(OC)CC(C)C(=O)C(C)C2N(CC3CN(C(=O)c4cnc5ccccc5c4)C3)C(=O)OC12C.O=CO` (centres unmarked) [4.38], the “MIC S. pyogenes 1079” value in assay [1] is greater than 64.00 µg/mL. Also, the “MIC H. influenzae 1218” value in assay [2] was found to be 2 µg/mL. Besides, in assay [3], the “MIC S. pneumo. 1175” value is less than 0.06 µg/mL. For the same compound, the “MIC S. pneumo. 1095” value in assay [4] was 2 µg/mL. Also, in assay [5], the “MIC S. pneumo. 1016” value was less than 0.06 µg/mL.

In the case of `CCC1OC(=O)C(C)C(=O)C(C)C(OC2OC(C)CC(N(C)C)C2O)C(C)(OC)CC(C)C(=O)C(C)C2N(CC3CN(C(=O)c4cc5ccccc5cn4)C3)C(=O)OC12C.O=CO` (centres unmarked) [4.39], in assay [1], the “MIC S. pyogenes 1079” value was greater than 64.00 µg/mL. In addition, the “MIC H. influenzae 1218” value in assay [2] stood at 4 µg/mL. In addition, the “MIC S. pneumo. 1175” value in assay [3] was less than 0.06 µg/mL. The “MIC S. pneumo. 1095” value in assay [4] is 8 µg/mL. Moreover, the “MIC S. pneumo. 1016” value in assay [5] was less than 0.06 µg/mL.

With `CCC1OC(=O)C(C)C(=O)C(C)C(OC2OC(C)CC(N(C)C)C2O)C(C)(OC)CC(C)C(=O)C(C)C2N(CC3CN(C(=O)c4ccc5cccnc5n4)C3)C(=O)OC12C.O=CO` (centres unmarked) [4.40], the “MIC S. pyogenes 1079” value in assay [1] was greater than 64.00 µg/mL. For the same compound, in assay [2], the “MIC H. influenzae 1218” value worked out at 4 µg/mL. Further, in assay [3], the “MIC S. pneumo. 1175” value is 0.5 µg/mL. The “MIC S. pneumo. 1095” value in assay [4] stood at 8 µg/mL. Besides, the “MIC S. pneumo. 1016” value in assay [5] was less than 0.06 µg/mL.

`CCC1OC(=O)C(C)C(=O)C(C)C(OC2OC(C)CC(N(C)C)C2O)C(C)(OC)CC(C)C(=O)C(C)C2N(CC3CN(C(=O)c4ccc5cnccc5n4)C3)C(=O)OC12C.O=CO` (centres unmarked) [4.41]: the “MIC S. pyogenes 1079” value in assay [1] is greater than 64.00 µg/mL. Moreover, the “MIC H. influenzae 1218” value in assay [2] came to 2 µg/mL. Further, in assay [3], the “MIC S. pneumo. 1175” value is less than 0.06 µg/mL. Further, the “MIC S. pneumo. 1095” value in assay [4] came out at 0.25 µg/mL. Besides, the “MIC S. pneumo. 1016” value in assay [5] is less than 0.06 µg/mL.

As for `CCC1OC(=O)C(C)C(=O)C(C)C(OC2OC(C)CC(N(C)C)C2O)C(C)(OC)CC(C)C(=O)C(C)C2N(CC3CN(Cc4cnn5ccccc45)C3)C(=O)OC12C.O=CO` (centres unmarked) [4.42], the “MIC S. pyogenes 1079” value in assay [1] is greater than 64.00 µg/mL. In addition, in assay [2], the “MIC H. influenzae 1218” value turned out to be 0.12 µg/mL. Further, the “MIC S. pneumo. 1175” value in assay [3] was less than 0.06 µg/mL. The “MIC S. pneumo. 1095” value in assay [4] was found to be 0.5 µg/mL. Besides, in assay [5], the “MIC S. pneumo. 1016” value is less than 0.06 µg/mL.
